Key:
Neutrophil collagenase = Neutrophil collagenase (Homo sapiens, UniProt P22894); experiment: Inhibition of human MMP8
Collagenase 3 = Collagenase 3 (Homo sapiens, UniProt P45452); experiment: Inhibition of human MMP13
[1] = target: Matrix metalloproteinase-14 (Homo sapiens, UniProt P50281); experiment: Inhibition of human MMP14
Interstitial collagenase = target: T1, Interstitial collagenase (Homo sapiens, UniProt P03956); experiment: Inhibition of human MMP1
T1 sequence (P03956 whole entry): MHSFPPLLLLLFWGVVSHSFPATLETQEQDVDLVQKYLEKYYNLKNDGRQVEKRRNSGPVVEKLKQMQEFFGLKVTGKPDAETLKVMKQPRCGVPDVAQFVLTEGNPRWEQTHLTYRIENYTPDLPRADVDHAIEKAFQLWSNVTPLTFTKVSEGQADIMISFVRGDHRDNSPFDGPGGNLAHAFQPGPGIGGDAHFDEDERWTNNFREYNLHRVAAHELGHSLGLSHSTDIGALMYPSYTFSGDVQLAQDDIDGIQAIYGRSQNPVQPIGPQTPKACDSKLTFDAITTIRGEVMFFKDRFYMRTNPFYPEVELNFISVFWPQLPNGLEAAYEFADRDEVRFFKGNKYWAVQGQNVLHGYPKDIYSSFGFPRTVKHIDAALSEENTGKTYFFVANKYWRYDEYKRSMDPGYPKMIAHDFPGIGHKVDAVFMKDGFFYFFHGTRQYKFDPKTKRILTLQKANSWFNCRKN

[2] = target: Matrix metalloproteinase-9 (Homo sapiens, UniProt P14780); experiment: Inhibition of human MMP9
[3] = target: 72 kDa type IV collagenase (Homo sapiens, UniProt P08253); experiment: Inhibition of human MMP2
[4] = Bioavailability in rat; assay type: ADME, organism-based; conditions: in vivo
[5] = Half life in rat; assay type: ADME, organism-based; conditions: in vivo

Neutrophil collagenase, sequence (P22894 whole entry): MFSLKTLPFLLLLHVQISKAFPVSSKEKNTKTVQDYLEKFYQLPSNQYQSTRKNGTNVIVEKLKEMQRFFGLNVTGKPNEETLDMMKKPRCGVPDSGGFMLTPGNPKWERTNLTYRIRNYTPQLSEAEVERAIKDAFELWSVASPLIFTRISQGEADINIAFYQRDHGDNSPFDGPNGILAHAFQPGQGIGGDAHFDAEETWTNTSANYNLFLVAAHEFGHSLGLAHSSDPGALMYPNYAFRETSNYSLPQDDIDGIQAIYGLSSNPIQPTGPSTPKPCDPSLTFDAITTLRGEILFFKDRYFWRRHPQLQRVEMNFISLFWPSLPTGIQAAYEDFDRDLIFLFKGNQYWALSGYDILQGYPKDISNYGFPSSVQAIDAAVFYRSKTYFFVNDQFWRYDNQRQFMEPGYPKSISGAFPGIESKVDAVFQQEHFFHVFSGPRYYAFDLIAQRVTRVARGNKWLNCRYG
72 kDa type IV collagenase, sequence (P08253 whole entry): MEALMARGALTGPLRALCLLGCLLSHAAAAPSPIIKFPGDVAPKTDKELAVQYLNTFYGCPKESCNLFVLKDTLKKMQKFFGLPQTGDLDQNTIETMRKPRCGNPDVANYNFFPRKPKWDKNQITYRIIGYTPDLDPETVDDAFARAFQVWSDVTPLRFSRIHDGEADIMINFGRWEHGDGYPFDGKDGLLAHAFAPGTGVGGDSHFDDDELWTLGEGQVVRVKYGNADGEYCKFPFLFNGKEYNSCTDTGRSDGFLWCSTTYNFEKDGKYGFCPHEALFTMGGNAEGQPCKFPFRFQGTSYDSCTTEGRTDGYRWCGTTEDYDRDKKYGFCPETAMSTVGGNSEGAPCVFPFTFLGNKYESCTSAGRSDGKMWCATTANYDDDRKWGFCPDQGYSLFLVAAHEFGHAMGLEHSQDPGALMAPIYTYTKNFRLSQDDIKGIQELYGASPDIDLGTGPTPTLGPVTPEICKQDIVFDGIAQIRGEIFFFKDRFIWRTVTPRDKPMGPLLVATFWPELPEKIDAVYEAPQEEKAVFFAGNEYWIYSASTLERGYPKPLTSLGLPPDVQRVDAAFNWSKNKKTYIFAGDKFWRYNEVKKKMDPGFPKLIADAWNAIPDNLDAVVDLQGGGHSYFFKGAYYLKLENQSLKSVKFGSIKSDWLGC
Matrix metalloproteinase-9, sequence (P14780 whole entry): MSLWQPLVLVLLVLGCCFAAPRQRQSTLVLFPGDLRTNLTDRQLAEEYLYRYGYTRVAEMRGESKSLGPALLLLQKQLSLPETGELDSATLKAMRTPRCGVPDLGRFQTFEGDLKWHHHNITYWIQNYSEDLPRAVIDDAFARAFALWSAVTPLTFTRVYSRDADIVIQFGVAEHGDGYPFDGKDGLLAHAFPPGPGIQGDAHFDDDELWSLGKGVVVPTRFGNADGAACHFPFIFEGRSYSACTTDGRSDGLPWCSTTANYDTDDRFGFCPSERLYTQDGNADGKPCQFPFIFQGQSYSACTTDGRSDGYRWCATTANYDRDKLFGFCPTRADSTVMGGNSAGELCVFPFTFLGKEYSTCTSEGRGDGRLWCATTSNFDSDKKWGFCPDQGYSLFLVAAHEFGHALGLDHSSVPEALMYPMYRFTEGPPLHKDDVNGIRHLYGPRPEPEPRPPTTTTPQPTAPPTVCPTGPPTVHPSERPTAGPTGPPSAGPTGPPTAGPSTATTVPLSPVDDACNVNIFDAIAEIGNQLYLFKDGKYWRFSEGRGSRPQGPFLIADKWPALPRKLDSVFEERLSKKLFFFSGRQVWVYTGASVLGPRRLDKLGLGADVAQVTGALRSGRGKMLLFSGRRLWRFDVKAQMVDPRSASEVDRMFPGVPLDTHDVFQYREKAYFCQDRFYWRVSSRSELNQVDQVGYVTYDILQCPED

Row | Compound | IC50 (Neutrophil collagenase) | IC50 (Collagenase 3) | IC50 [2] | IC50 [3] | other results
1 | CN(C)c1ccc(NC(=O)CCCCOc2ccc(S(=O)(=O)C3(C(=O)NO)CCOCC3)cc2)cc1 | 2.6 nM |  |  |  | 
2 | CN(C)c1ccc(C(=O)CCCOc2ccc(S(=O)(=O)C3(C(=O)NO)CCOCC3)cc2)cc1 | 170 nM |  |  |  | 
3 | CCCC(C)(C)C(=O)NCCCOc1ccc(S(=O)(=O)C2(C(=O)NO)CCOCC2)cc1 | 1200 nM | 30 nM |  |  | 
4 | C#CCN1CCC(C(=O)NO)(S(=O)(=O)c2ccc(Sc3ccccc3)cc2)CC1 |  |  |  |  | IC50 [1]: 8 nM; IC50 (Interstitial collagenase): > 5000 nM
5 | O=C(NCCCOc1ccc(S(=O)(=O)C2(C(=O)NO)CCOCC2)cc1)c1ccc(OC(F)(F)F)cc1 | 140 nM | 0.66 nM | 2200 nM | 360 nM | 
6 | CN(C)c1ccc(C(=O)NCCCOc2ccc(S(=O)(=O)C3(C(=O)NO)CCOCC3)cc2)cc1 | 1000 nM | 2 nM |  | 1100 nM | 
7 | COc1ccc(NC(=O)CCCOc2ccc(S(=O)(=O)C3(C(=O)NO)CCOCC3)cc2)cc1 | 31 nM | 0.3 nM | 23 nM | 2.5 nM | 
8 | CN(C)c1ccc(C(=O)C2CCN(c3ccc(S(=O)(=O)C4(C(=O)NO)CCOCC4)cc3)CC2)cc1 | > 10000 nM | 8 nM | > 10000 nM | 4000 nM | 
9 | O=C(CCCOc1ccc(S(=O)(=O)C2(C(=O)NO)CCOCC2)cc1)Nc1ccc(OC(F)(F)F)cc1 | 6.7 nM |  |  | 11 nM | 
10 | CN(C)c1ccc(C(=O)CCCCOc2ccc(S(=O)(=O)C3(C(=O)NO)CCOCC3)cc2)cc1 | 140 nM | 0.4 nM | 1100 nM | 35 nM | 
11 | Cc1ccc(C(=O)NCCCOc2ccc(S(=O)(=O)C3(C(=O)NO)CCOCC3)cc2)c(C)c1 | 700 nM | 8 nM |  |  | 
12 | O=C(NCCCOc1ccc(S(=O)(=O)C2(C(=O)NO)CCOCC2)cc1)C1CCCCC1 | 3100 nM | 8.2 nM |  |  | 
13 | O=C(CCCOc1ccc(S(=O)(=O)C2(C(=O)NO)CCOCC2)cc1)N1CCCCC1 | 800 nM | 1.2 nM | 670 nM | 170 nM | 
14 | COc1ccc(C(=O)NCCCOc2ccc(S(=O)(=O)C3(C(=O)NO)CCOCC3)cc2)cc1 | 900 nM |  |  |  | bioavailability [4]: 1.5%; half-life [5]: 34.8 min
15 | CN(C)c1ccc(C(=O)CCOc2ccc(S(=O)(=O)C3(C(=O)NO)CCOCC3)cc2)cc1 | 120 nM | 0.9 nM |  | 16 nM | 
16 | CN(C(=O)CCCOc1ccc(S(=O)(=O)C2(C(=O)NO)CCOCC2)cc1)c1ccc(OC(F)(F)F)cc1 | 49 nM | 3.3 nM | 380 nM | 270 nM | 
17 | CN(C)c1ccc(NC(=O)CCCOc2ccc(S(=O)(=O)C3(C(=O)NO)CCOCC3)cc2)cc1 | 100 nM |  |  | 10 nM | 
18 | COc1ccc(OCCCCOc2ccc(S(=O)(=O)C3(C(=O)NO)CCOCC3)cc2)cc1 | 67 nM |  |  |  | 

— ChEMBL document CHEMBL1770058, “MMP-13 selective alpha-sulfone hydroxamates: identification of selective P1' amides” (Bioorg Med Chem Lett, 2011)
